Laboratory results published in patent US8309068B2, “Isolated polypeptides and methods of improving muscle strength” (Myostin Therapeutics Pty Ltd., priority 2006, dated 2012).
“Also recorded” adds a separate entry of the source. Where no end group is shown, it is not given here.

B1: myostatin antagonist 329: recombinant peptide, amino acids 267-329 of bovine myostatin, with N terminal and C terminal tag (SEQ ID NO: 3) (protein, listed as Homo sapiens)
chain: DFGLDCDEHSTESRCCRYPLTVDFEAFGWDWIIAPKRYKANYCSGECEFVFLQKYPHTHLVHQ
modifications: N- and C-terminal tags

Key:
[1] = test system: C57B mice injected with Dexamethasone; test: In vivo cachexia trial (Dexamethasone-induced)
Method: A study of chronic cachexia was designed whereby C57B mice, 4 weeks of age, were injected with the glucocorticoid drug Dexamethasone daily at a concentration of 1 mg/kg body weight. Three treatment groups were designed: 5 mice receiving daily injections of saline, 5 mice receiving daily injections of Dexamethasone and 5 mice receiving daily injections of Dexamethasone plus 300 antagonist at a concentration of 6μg/g body weight. Body weight of the mice was recorded daily and monitored closely for signs of cachexia. Food and water consumption was recorded to ensure that loss in body weight was not due to a loss of appetite or thirst. Body weights, fat-pad weights, and MyoD and Pax7 expression were assessed.

C2C12 myoblasts = test: C2C12 myoblast proliferation assay (methylene blue endpoint); assay type: cell-based, murine; conditions: for proliferation capacity of myoblasts compared to control: 1 μg/ml or 5 μg/ml over 48 or 72 hours; for concentration at which the highest myoblast proliferation rate was observed: 48 hour time point
Method: A polypeptide of the invention, or a fragment, variant or derivative thereof has the biological function of antagonising myostatin activity. To determine whether a polypeptide of the invention, or a fragment, variant or derivative thereof, is able to antagonise myostatin activity, such activity can be tested by growing myoblasts in the presence or absence (control) of a candidate polypeptide of the invention. […]
(§1) The myoblast proliferation assay was carried out in uncoated 96-well microtitre plates. C2C12 cultures were seeded at 1000 cells/well. Following a 16-hour attachment period, test media containing either recombinant wild type myostatin or different myostatin antagonists were added and cells were incubated for a further 48 or 72 hour period. For competition assay, wild type myostatin was competed with different concentrations of myostatin antagonists prior to the addition into the media. After the incubation period, proliferation was assessed using methylene blue photometric endpoint assay as previously described (Thomas et al, 2000).

satellite cells = test: Single muscle fibre satellite cell activation assay (PCNA labeling); assay type: cell-based, mice; conditions: single fibres from old (2 year old) mice; 5 μg/ml; 24 or 48 hours
Method: Single fibres were isolated as previously described Rosenblatt et al., (1995). Briefly, 1 and 24 month old wild-type mice were euthanized by CO2 gas followed by cervical dislocation. TA were dissected out and digested in 0.2% (w/v) type 1A collagenase (>260 CDU/mg, Sigma) in Dulbecco's modified Eagle medium (DMEM) (Invitrogen) for 60 minutes at 37° C. Muscles were transferred to DMEM +10% horse serum (HS) +0.5% chicken embryo extract (CEE) and fibres were separated by gentle trituration. Isolated fibres were transferred to 4 well chamber slides (Becton Dickinson) coated with 10% matrigel (Becton Dickinson) and fixed with 100% ice cold methanol for 10 minutes after culturing up to 72 hours at 37° C. in 5% CO2.
Proliferating Cell Nuclear Antigen (PCNA) is expressed in cells that are actively undergoing cell cycle but not in quiescent cells. […] However, upon activation, satellite cells are activated to express PCNA and regenerate the muscle by replenishing the muscle fibres. Thus PCNA is a very reliable antigen to marker for the activated satellite cells.
In order to determine the effect of myostatin antagonists on satellite cell activation, single muscle fibres from TA muscle of young (1 month) or old (24 month) wild type mice were cultured in presence of 5 μg/ml of myostatin antagonist 320, 310 or 300, in culture media for 24, 48 and 72 hours and fixed with methanol and washed in PBS. The fixed fibres were permeabilised in 0.5% TritonX-100 in PBS for 10 minutes, blocked in 10% normal goat serum and 0.35% carrageenan lambda in PBS for 30 minutes at room temperature then incubated with a 1:100 dilution of anti-PCNA antibody in blocker overnight. Primary antibody was detected using goat anti-mouse-alexa fluor 546 and fibres were counterstained with DAPI. PCNA positive activated satellite cells were counted under microscope and expressed as a percent of total myonuclei.

primary ovine myoblasts = test: Ovine myoblast proliferation assay; assay type: cell-based; conditions: 1, 5 or 10 μg/ml; 48 hours
Method: (§2) Human skeletal muscle myoblasts (Cambrex, USA) or primary ovine myoblasts were grown in Dulbecco's Modified Eagle Medium containing 20% FBS, 10% Horse serum and 0.5% chicken embryo extract according to the standard techniques. The myoblast proliferation assay was carried out in uncoated 96-well microtitre plates. Cell cultures were seeded at 2000 cells/well. Following a 24-hour attachment period, test media supplemented with 5% FCS containing either buffer as a control or different myostatin antagonists (300, 310 or 320) were added at 1, 5 and 10 μg/ml and cells were incubated for a further 144 hour period (for human cells) or 48 hours (for ovine cells). After the incubation period, proliferation was assessed using methylene blue photometric endpoint assay as previously described (Thomas et al, 2000).

myostatin [2] = test: C2C12 myoblast proliferation competition assay: wild type myostatin competed with antagonists; assay type: cell-based; conditions: antagonist 1, 5 and 10 μg/ml; myostatin 2.25 μg/ml
Method: as §1, with “[…] C2C12 myoblasts were grown in Dulbecco's modified eagle medium according to the standard techniques (Thomas et al, 2000). The” for “The”

myostatin [3] = test: Myoblast chemotaxis assay, recovery of myostatin chemo-inhibition by antagonists; assay type: cell-based
Method: Primary myoblasts were cultured from the hind limb muscle of young (4 to 6 week old) or old (24 month old) mice, according to the published protocols (Allen et al., 1997; Partridge, 1997). Briefly, muscles were minced, and digested in 0.2% collagenase type 1A for 90 min. Cultures were enriched for myoblasts by pre-plating on uncoated plates for 3 hours. Myoblast cultures were maintained in growth media (GM) supplemented with 20% fetal calf serum (FCS), 10% HS and 1% CEE on 10% Matrigel coated plates, at 37° C./5% CO2. The extent of culture purity was assessed by flow cytometry analysis of MyoD expression after 48 hours in culture. Cells were harvested using trypsin, suspended at a concentration of 10^6 cells/200 μl and fixed overnight in 5 ml 70% ethanol at −20° C. Staining was performed for 30 min at room temperature using rabbit polyclonal anti-MyoD, 1:200 (Santa Cruz), followed by Alexa fluor 488 anti-rabbit conjugate, 1:500 (Molecular Probes). Analysis was carried out in duplicate with 10^4 cell events collected in each assay. Debris was excluded by gating on forward and side scatter profiles. Cells were analyzed by FACScan (Becton Dickinson). Macrophages were isolated by a peritoneal lavage technique and/or derived from bone marrow Zymosan-activated mouse serum (ZAMS) was prepared according to the published protocol (Colditz and Movat, 1984).
For the chemotaxis assay of myoblasts, a first assay was carried out on myoblasts from 2 year old mice as follows. DMEM containing 2% horse serum (HS), 5% chicken embryo extract (CEE) plus dialysis buffer was used as positive control. […] Plain DMEM was used as negative control. On a 24-well plate, the bottom wells were filled with test or control media. Seventy-five thousand cells were added to the top wells containing polyethylene terephthalate (PET) 0.8 μm membranes coated with 1% Matrigel. The plate was incubated for 7 h at 37° C., 5% CO2. […] The membrane was then fixed, stained in Gill's hematoxylin and wet mounted on slides. Migrated cells were counted on four representative fields per membrane and the average number plotted. The results are shown in FIG. 6 (myoblast migration from old mice) and FIG. 7 (myoblast migration from young mice).

[4] = test system: Human skeletal muscle myoblasts; test: Human myoblast proliferation assay; assay type: cell-based; conditions: 1, 5 or 10 μg/ml; 144 hours
Method: as §2

[5] = Dexamethasone, right gastrocnemius, p<0.05
[6] = myoblasts from old (2 year old) mice, antagonist added at 5 μg/ml, myostatin 2.5 μg/ml

Molecule | proliferation capacity of myoblasts compared to control (C2C12 myoblasts) | percentage of activated satellite cells (satellite cells) | concentration at which the highest myoblast proliferation rate was observed (C2C12 myoblasts) [µg/mL] | proliferation capacity of ovine myoblasts compared to control (primary ovine myoblasts) | rescue of the proliferation-inhibiting effects of myostatin on myoblasts (myostatin [2]) | rescue of chemo-inhibiting effects of myostatin on myoblast migration (myostatin [3]; [6]) | proliferation capacity of human myoblasts compared to control [4] | further results
C[C@@H]1C[C@H]2[C@@H]3CCC4=CC(=O)C=C[C@]4(C)[C@@]3(F)[C@@H](O)C[C@]2(C)[C@@]1(O)C(=O)CO [Dexamethasone, reference compound] |  |  |  |  |  |  |  | average body weight compared with saline injected controls ([1]; Dexamethasone 1 mg/kg daily, 22 days): reduction in average body weight; increase in left retroperitoneal fat-pad weight compared to saline ([1]; Dexamethasone only): 62.9%; increase in right retroperitoneal fat-pad weight compared to saline ([1]; Dexamethasone only): 60.4%; left and right retroperitoneal and inguinal fat-pad weights compared to saline ([1]; Dexamethasone only, p<0.05): statistically significant increases; MyoD expression (Western blot) [1, 5]: significant down-regulation; Pax7 expression (Western blot) [1, 5]: significant down-regulation
myostatin antagonist 280: recombinant peptide, amino acids 267-280 of bovine myostatin, with tags; contains only one cysteine residue; inactive comparison (DFGLDCDEHSTESR; also: with tags; UniProt O18836 267-280, looked up, fragment) | did not show activity above the control |  |  |  |  |  |  | biological (myostatin antagonist) activity of the peptide (C2C12 myoblasts; listed as 280): appears to be inactive; also recorded: not biologically active
myostatin antagonist 310: recombinant peptide, amino acids 267-310 of bovine myostatin, with N terminal and C terminal tag (SEQ ID NO: 5) (DFGLDCDEHSTESRCCRYPLTVDFEAFGWDWIIAPKRYKANYCS; cysteine pairing not given here; also: N- and C-terminal tags; listed as Homo sapiens) | significantly enhanced | Significant increases | 5 | significantly enhanced | rescued to levels similar to those observed in the positive control | rescued to levels similar to those observed in the control | significantly enhanced | rescue of chemo-inhibiting effects of myostatin on myoblast migration (myostatin [3]; myoblasts from young (1 month old) mice): rescued the migration of myostatin cells to control levels
myostatin antagonist 320: recombinant peptide, amino acids 267-320 of bovine myostatin, with N terminal and C terminal tag (SEQ ID NO: 4) (DFGLDCDEHSTESRCCRYPLTVDFEAFGWDWIIAPKRYKANYCSGECEFVFLQK; cysteine pairing not given here; also: N- and C-terminal tags; listed as Homo sapiens) | significantly enhanced | Significant increases | 5 | significantly enhanced | rescued to levels similar to those observed in the positive control | rescued to levels similar to those observed in the control | significantly enhanced | 
B1 | significantly enhanced |  | 10 |  |  |  |  | 
